Like-named read-outs stand apart in the source and are kept apart here.
Legend:
EGFR WT kinase = EGFR WT kinase (Homo sapiens (Human), UniProt P00533); experiment: Wild type EGFR kinase inhibition test (z-lyte); format: biochemical; details: 10 μM ATP
H1975 cells [1] = experiment: ELISA screening EGFR T790M inhibitor for cell activity, H1975 cells; format: cell-based; details: ELISA; for Selective inhibitory activities of target on cellular level [IC50 (A431 cells)/IC50 (H1975 cells)]: ratio of IC50 values; for IC50: compound 1 h, read-out: H1975 cells (IC50/nM)
NIH3T3 cells = experiment: Cytotoxicity by MTT method, NIH3T3 cells; format: cell-based; details: cytotoxicity, MTT, 72 h, read-out: NIH3T3 cells MTT assay (IC50/nM);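 note: cells grown in 96-well plates with compound for 72 h, then given MTT for a further 4 h at 37 °C under 5% CO2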
A431 cells [2] = experiment: ELISA cell activity, EGF-stimulated A431 cells; format: cell-based; details: ELISA, compound 1 h then EGF 45 minutes, read-out: A431 cells (IC50/nM);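 note: Serum-starved A431 cells pretreated with compound for 1 h, then stimulated with EGF for 45 min, lysates read by ELISA (OD450 minus OD570), EGF-only wells as control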
A431 cells [3] = experiment: Cytostatic activity by MTT method, A431 cells; details: read-out: A431 cells (IC50/nM);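 note: viability read by MTT reduction after compound exposure, with MTT incubated for a further 4 h at 37 °C under 5% CO2 in 96-well plates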
H1975 cells [4] = experiment: Cytostatic activity by MTT method, H1975 cells; format: cell-based; details: MTT; for IC50: 72 h, read-out: H1975 cells (IC50/nM); for selective inhibitory activity against the cell growth [IC50 (A431 cells)/IC50 (H1975 cells)]: ratio of IC50 values

Chain of EGFR WT kinase (P00533 25-1210): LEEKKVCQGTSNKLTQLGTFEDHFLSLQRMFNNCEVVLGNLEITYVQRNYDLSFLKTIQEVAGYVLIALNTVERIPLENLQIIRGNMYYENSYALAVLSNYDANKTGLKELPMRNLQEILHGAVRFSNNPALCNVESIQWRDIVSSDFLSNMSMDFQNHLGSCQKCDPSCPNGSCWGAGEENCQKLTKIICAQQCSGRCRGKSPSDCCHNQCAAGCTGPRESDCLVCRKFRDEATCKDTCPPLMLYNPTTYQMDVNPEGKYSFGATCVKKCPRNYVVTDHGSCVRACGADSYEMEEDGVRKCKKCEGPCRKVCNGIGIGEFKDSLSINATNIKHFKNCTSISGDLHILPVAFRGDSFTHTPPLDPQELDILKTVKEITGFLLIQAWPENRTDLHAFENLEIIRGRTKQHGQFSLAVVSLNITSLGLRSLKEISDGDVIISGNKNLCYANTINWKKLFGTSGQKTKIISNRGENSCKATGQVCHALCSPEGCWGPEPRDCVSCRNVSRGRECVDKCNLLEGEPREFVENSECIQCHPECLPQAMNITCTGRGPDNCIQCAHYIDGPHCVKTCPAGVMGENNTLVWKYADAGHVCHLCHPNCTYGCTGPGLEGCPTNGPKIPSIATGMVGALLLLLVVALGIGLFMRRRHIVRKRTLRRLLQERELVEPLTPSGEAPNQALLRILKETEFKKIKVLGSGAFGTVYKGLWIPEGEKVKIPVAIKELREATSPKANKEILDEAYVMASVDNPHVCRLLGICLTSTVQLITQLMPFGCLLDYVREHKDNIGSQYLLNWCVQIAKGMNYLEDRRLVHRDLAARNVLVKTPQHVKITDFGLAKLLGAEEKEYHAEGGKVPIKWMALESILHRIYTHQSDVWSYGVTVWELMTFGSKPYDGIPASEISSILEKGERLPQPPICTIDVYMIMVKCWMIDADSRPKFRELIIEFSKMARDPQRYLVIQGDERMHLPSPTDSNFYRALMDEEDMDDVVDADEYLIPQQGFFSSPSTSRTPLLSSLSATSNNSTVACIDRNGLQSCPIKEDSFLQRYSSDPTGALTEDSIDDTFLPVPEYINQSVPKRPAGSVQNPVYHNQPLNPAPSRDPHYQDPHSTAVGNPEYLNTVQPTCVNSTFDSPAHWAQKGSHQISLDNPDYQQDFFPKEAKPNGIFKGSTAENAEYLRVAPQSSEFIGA

Row | Structure (SMILES) | IC50 (EGFR WT kinase) | Selective inhibitory activities of target on cellular level [IC50 (A431 cells)/IC50 (H1975 cells)] (H1975 cells [1]) | IC50 (H1975 cells [1]; Homo sapiens, NCI-H1975) | IC50 (A431 cells [2]; Homo sapiens, A-431) | IC50 (A431 cells [3]; Homo sapiens, A-431, 72 h) | IC50 (H1975 cells [4]; Homo sapiens, NCI-H1975) | selective inhibitory activity against the cell growth [IC50 (A431 cells)/IC50 (H1975 cells)] (H1975 cells [4]) | IC50 (H1975 cells [1]) | IC50 (A431 cells [2]) | IC50 (A431 cells [3]; MTT, 72 h) | IC50 (H1975 cells [4]) | IC50 (NIH3T3 cells; Mus musculus, NIH3T3) | IC50 (NIH3T3 cells)
1 | C=CC(=O)Nc1cc(Nc2ncc(Cl)c(-c3cn(C)nc3C)n2)c(OC)cc1N1CCC(N(C)C)CC1 [Compound Z-95, N-(5-(5-chloro-4-(1,3-dimethyl-1H-pyrazol-4-yl)pyrimidin-2-ylamino)-2-(4-(dimethylamino)piperidin-1-yl)-4-methoxyphenyl)acrylamide] | 328 nM | 121 | 41 nM | 4960 nM | 5450 nM | 45 nM | 121.1 |  |  |  |  | > 10000 nM | 
2 | C=CC(=O)Nc1cc(Nc2nccc(-c3cnc4c(ccn4C)c3)n2)c(OC)cc1N(C)CCN(C)CC [Compound Z-105] | 7 nM | 6.5 |  |  |  |  |  | 28 nM | 181 nM |  |  |  | 9360 nM
3 | C=CC(=O)Nc1cc(Nc2ncc(Cl)c(-c3cnn(C)c3C)n2)c(OC)cc1N(C)CCN(C)C [Compound Z-55] | 21 nM |  |  |  |  |  |  | 15 nM | 200 nM | 660 nM |  |  | 5420 nM
4 | C=CC(=O)Nc1cc(Nc2ncc(F)c(-c3cnc4c(cnn4C)c3)n2)c(OC)cc1N(C)CCN(C)C [Compound Z-41] | 20 nM | 30.8 |  |  |  |  |  | 31 nM | 954 nM |  |  |  | > 10000 nM
5 | C=CC(=O)Nc1cc(Nc2nccc(-c3cnc4[nH]ccc4c3)n2)c(OC)cc1N(C)CCN(C)C [Compound Z-30] |  |  |  |  |  |  | 44.4 |  |  | 1110 nM | 25 nM |  | 5790 nM
6 | C=CC(=O)Nc1cc(Nc2ncc(Cl)c(-c3ccn(C)c3)n2)c(OC)cc1N1CCC(N(C)C)CC1 [Compound Z-98, N-(5-(5-chloro-4-(1-methyl-1H-pyrrol-3-yl)pyrimidin-2-ylamino)-2-(4-(dimethylamino)piperidin-1-yl)-4-methoxyphenyl)acrylamide] | 407 nM |  |  |  | 1640 nM | 108 nM | 15.2 |  |  |  |  | 4360 nM | 
7 | C=CC(=O)Nc1cc(Nc2ncc(C(F)(F)F)c(-c3cnc4c(ccn4C)c3)n2)c(OC)cc1N(C)CCN(C)C [Compound Z-22, N-(2-((2-(dimethylamino)ethyl)(methyl)amino)-4-methoxy-5-((4-(1-methyl-1H-pyrrolo[2,3-b]pyridin-5-yl)-5-(trifluoromethyl)pyrimidin-2-yl)amino)phenyl)acrylamide] | 57 nM | 53.6 | 23 nM | 1230 nM | 1900 nM | 29 nM | 65.5 |  |  |  |  |  | 
8 | C=CC(=O)Nc1cc(Nc2ncc(Cl)c(-c3cnc4c(ccn4C)c3)n2)c(OC)cc1N(C)CCN(C)C [Compound Z-1, N-(5-(5-chloro-4-(1-methyl-1H-pyrrolo[2,3-b]pyridin-5-yl)pyrimidin-2-amino)-2-((2-(dimethylamino)ethyl)methylamino)-4-methoxyphenyl)acrylamide] | 25 nM | 15.7 |  |  |  |  |  | 30 nM | 471 nM |  |  |  | 6590 nM
9 | C=CC(=O)Nc1cc(Nc2ncc(Cl)c(-c3cnn(C)c3)n2)c(OC)cc1N(C)CCN(C)C [Compound Z-19, N-(5-((5-chloro-4-(1-methyl-1H-pyrazol-4-yl)pyrimidin-2-yl)amino)-2-((2-(dimethylamino)ethyl)(methyl)amino)-4-methoxyphenyl)acrylamide] |  |  | 21 nM | 675 nM | 757 nM | 22 nM |  |  |  |  |  | 4510 nM | 
10 | C=CC(=O)Nc1cc(Nc2nccc(-c3cnc4c(ccn4C)c3)n2)c(OC)cc1N(C)CCNC [Compound Z-106] | 4 nM | 16.1 |  |  |  |  | 52.7 | 12 nM | 193 nM | 685 nM | 13 nM |  | 
11 | C=CC(=O)Nc1cc(Nc2ncc(OC)c(-c3cnc4c(cnn4C)c3)n2)c(OC)cc1N(C)CCN(C)C [Compound Z-44] | 30 nM |  |  |  |  |  | 56.7 |  |  | 1810 nM | 32 nM |  | 8880 nM
12 | C=CC(=O)Nc1cc(Nc2ncc(Cl)c(-c3cn[nH]c3)n2)c(OC)cc1N1CCC(N(C)C)CC1 [Compound Z-102, N-(5-(5-chloro-4-(1H-pyrazol-4-yl)pyrimidin-2-ylamino)-2-(4-(dimethylamino)piperidin-1-yl)-4-methoxyphenyl)acrylamide] |  |  | 11 nM | 1020 nM | 597 nM | 15 nM |  |  |  |  |  |  | 
13 | C=CC(=O)Nc1cc(Nc2ncc(F)c(-c3cnc4c(ccn4C)c3)n2)c(OC)cc1N(C)CCN(C)C [Compound Z-20, N-(2-((2-(dimethylamino)ethyl)(methyl)amino)-5-((5-fluoro-4-(1-methyl-1H-pyrrolo[2,3-b]pyridin-5-yl)pyrimidin-2-yl)amino)-4-methoxyphenyl)acrylamide] | 4 nM | 7.6 | 22 nM | 167 nM |  |  |  |  |  |  |  |  | 
14 | C=CC(=O)Nc1cc(Nc2nccc(-c3cnc4c(cnn4C)c3)n2)c(OC)cc1N(C)CCN(C)C [Compound Z-6, N-(2-((2-(dimethylamino)ethyl)(methyl)amino)-4-methoxy-5-(4-(1-methyl-1H-pyrazolo[3,4-b]pyridin-5-yl)pyrimidin-2-ylamino)phenyl)acrylamide] | 10 nM | 5.7 | 34 nM | 194 nM | 773 nM | 17 nM | 45.5 |  |  |  |  |  | 
15 | C=CC(=O)Nc1cc(Nc2ncc(Cl)c(-c3cnn(C4CCNCC4)c3)n2)c(OC)cc1N1CCC(N(C)C)CC1 [Compound Z-96, N-(5-(5-chloro-4-(1-(piperidin-4-yl)-1H-pyrazol-4-yl)pyrimidin-2-ylamino)-2-(4-(dimethylamino)piperidin-1-yl)-4-methoxyphenyl)acrylamide] | 41 nM | 10.3 | 94 nM | 969 nM |  |  |  |  |  |  |  |  | 

The next lines start with results.

Row | IC50 (EGFR WT kinase) | Selective inhibitory activities of target on cellular level [IC50 (A431 cells)/IC50 (H1975 cells)] (H1975 cells [1]) | IC50 (H1975 cells [1]; Homo sapiens, NCI-H1975) | IC50 (A431 cells [2]; Homo sapiens, A-431) | IC50 (A431 cells [3]; Homo sapiens, A-431, 72 h) | IC50 (H1975 cells [4]; Homo sapiens, NCI-H1975) | selective inhibitory activity against the cell growth [IC50 (A431 cells)/IC50 (H1975 cells)] (H1975 cells [4]) | IC50 (H1975 cells [1]) | IC50 (A431 cells [2]) | IC50 (A431 cells [3]; MTT, 72 h) | IC50 (H1975 cells [4]) | Structure (SMILES) | IC50 (NIH3T3 cells; Mus musculus, NIH3T3) | IC50 (NIH3T3 cells)
16 | 22 nM | 6.3 |  |  |  |  |  | 77 nM | 486 nM |  |  | C=CC(=O)Nc1cc(Nc2nccc(-c3cnc4c(ccn4C)c3)n2)c(OC)cc1N(C)CCN1CCCC1 [Compound Z-112] |  | > 10000 nM
17 | 16 nM | 15.5 |  |  |  |  | 38.2 | 55 nM | 855 nM | 1410 nM | 37 nM | C=CC(=O)Nc1cc(Nc2nccc(-c3cnc4c(ccn4C)c3)n2)c(OC)cc1N(C)CCN(CC)CC [Compound Z-107] |  | 
18 | 13 nM |  |  |  |  |  | 46.8 |  |  | 1780 nM | 38 nM | C=CC(=O)Nc1cc(Nc2nccc(-c3cnc4c(ccn4C(C)C)c3)n2)c(OC)cc1N(C)CCN(C)C [Compound Z-124] |  | 3240 nM
19 | 3 nM |  |  |  |  |  | 40.2 |  |  | 1040 nM | 26 nM | C=CC(=O)Nc1cc(Nc2ncc(F)c(-c3cnc4c(c3)c(Cl)cn4C)n2)c(OC)cc1N(C)CCN(C)C [Compound Z-123] |  | 4740 nM
20 | 121 nM | 22.8 |  |  |  |  |  | 99 nM | 2250 nM |  |  | C=CC(=O)Nc1cc(Nc2ncc(Cl)c(-c3cnc4c(ccn4C)c3)n2)c(OC)cc1N1CC(N(C)C)C1 [Compound Z-113] |  | 5320 nM
21 |  |  |  |  |  |  | 37.7 |  |  | 2900 nM | 77 nM | C=CC(=O)Nc1cc(Nc2nccc(-c3cnc4c(ccn4C)c3)n2)c(OC)cc1N(C)CCCN(C)C [Compound Z-108] |  | 3620 nM
22 |  | 0.83 | 241 nM | 199 nM | 6660 nM | 277 nM | 24 |  |  |  |  | C=CC(=O)Nc1cc(Nc2nccc(-c3cccnc3)n2)c(OC)cc1N1CCC(N(C)C)CC1 [compound 2, reference compound] |  | 
23 |  | 2.7 | 1140 nM | 3110 nM | 2970 nM | 437 nM | 6.8 |  |  |  |  | C=CC(=O)Nc1cc(Nc2ncc(OC)c(-c3cnc4ccccc4c3)n2)c(OC)cc1N1CCC(N(C)C)CC1 [compound 3, reference compound] |  | 
24 | 28 nM | 5.1 |  |  |  |  |  | 85 nM | 434 nM |  |  | C=CC(=O)Nc1cc(Nc2ncc(Cl)c(-c3cnc4c(ccn4C)c3)n2)c(OC)cc1N(C)CCN(C)CC [Compound Z-109] |  | 6000 nM
